Test in all cases: Test H postemergence mixture test of compound 39 with commercial herbicides, observed and Colby expected effect 0-100
Common to all, as to format: in vivo
Common to all, as to settings: Cmpd 39 alone, 14 days after treatment

One experiment has as its system corn (ZEAMD, Zea mays). The source says:
(§1) This test evaluated the effect of mixtures of compound 39 with three commercial herbicides on five plant species. Seeds of plant species selected from corn (ZEAMD, Zea mays), soybean (GLXMA, Glycine max), palmer pigweed (AMAPA, Amaranthus palmeri), waterhemp (common waterhemp, AMATA, Amaranthus rudis), and Kochia (KCHSC, Kochia scoparia) were planted in pots containing Redi-Earth® planting medium (Scotts Company, 14111 Scottslawn Road, Marysville, Ohio 43041) comprising spaghnum peat moss, vermiculite, wetting agent and starter nutrients and treated with postemergence applications of test chemicals formulated in a non-phytotoxic solvent mixture which included a surfactant and applied using a volume of 299 L/ha. Each treatment was replicated four times. Treated plants and controls were maintained in a greenhouse using supplemental lighting to maintain a photoperiod of about 16 h; daytime and nighttime temperatures were about 24-30° C. and 19-21° C., respectively. Nutrients were applied using a balanced fertilizer applied through the watering system. At 14 days after treatment, all species were compared to controls and visually evaluated. Plant response ratings were calculated as the mean of the four replicates, are summarized in Tables H1 through H6, and are based on a scale of 0 to 100 where 0 is no effect and 100 is complete control. A dash (-) response means no test result.
(§2) Colby's Equation was used to determine the herbicidal effects expected from the mixtures. Colby's Equation (Colby, S. R. “Calculating Synergistic and Antagonistic Responses of Herbicide Combinations,” Weeds, 15(1), pp 20-22 (1967)) calculates the expected additive effect of herbicidal mixtures and for two active ingredients is of the form: Pa+b=Pa+Pb−(PaPb/100) • where • Pa+b is the percentage effect of the mixture expected from additive contribution of the individual components: • Pa is the observed percentage effect of the first active ingredient at the same use rate as in the mixture, and • Pb is the observed percentage effect of the second active ingredient at the same use rate as in the mixture. In the following Tables, rates are shown in grams of active ingredient per hectare (g a.i./ha); “Obsd.” is the observed effect. “Exp.” is the expected effect calculated from Colby's Equation.

For experiment [1], the system named is soybean (GLXMA, Glycine max).
Excerpt: as §1, §2

For experiment [2], the system named is palmer pigweed (AMAPA, Amaranthus palmeri).
Excerpt: as §1, §2

The subject of experiment [3] is waterhemp (common waterhemp, AMATA, Amaranthus rudis).
Excerpt: as §1, §2

Experiment [4] has as its system Kochia (KCHSC, Kochia scoparia).
Excerpt: as §1, §2

Each structure is given as a SMILES string. Values joined by “and” are separate entries in the source; they are usually repeats but may differ in a detail not shown here. Identical values can stand only once.

For `C#CCn1cc(C(=O)c2ccccc2)c(-c2cc(Cl)cc(Cl)c2)n1` [Compound 39, [3-(3,5-dichlorophenyl)-1-(2-propyn-1-yl)-1H-pyrazol-4-yl]phenylmethanone], the “ZEAMD Obsd. (observed effect)” value worked out at 0 with corn (ZEAMD, Zea mays) (16 g a.i./ha); 0 in the experiment with corn (ZEAMD, Zea mays) (31 g a.i./ha); 0 in the experiment on corn (ZEAMD, Zea mays) (62 g a.i./ha). In addition, the “GLXMA Obsd. (observed effect)” value in experiment [1] (16 g a.i./ha), in experiment [1] (31 g a.i./ha) and in experiment [1] (62 g a.i./ha) was 0 throughout. Moreover, the “AMAPA Obsd. (observed effect)” value in experiment [2] (16 g a.i./ha) is 55; in experiment [2] (31 g a.i./ha) it was 86 and 78; in experiment [2] (62 g a.i./ha) it was 79 and 76. Further, the “AMATA Obsd. (observed effect)” value in experiment [3] (16 g a.i./ha) was 75; in experiment [3] (31 g a.i./ha), 88 and 83; in experiment [3] (62 g a.i./ha), 79. Also, the “KCHSC Obsd. (observed effect)” value in experiment [4] (16 g a.i./ha) is 47; in experiment [4] (31 g a.i./ha) it was 60 and 47; in experiment [4] (62 g a.i./ha), 64.

These data come from patent US10167262B2, “Herbicidal substituted 3-arylpyrazoles” (FMC CORPORATION, priority 2014, dated 2019).
